A short description of series [1]: Membrane Permeability Test, parallel artificial membrane permeability assay (PAMPA). Format: in vitro ADME. Conditions: pH 7.4, pH7.4, 37° C., read-out: Pe (pH7.4). The procedure: By the parallel artificial membrane permeability assay (PAMPA), the membrane permeability of compounds of Examples was examined as follows: To the donor plate, System solution (pION inc.) and GIT Lipid-0 (pION inc.) were added in an amount of 200 μL and 4 μL for each well, respectively. To the acceptor plate, Acceptor Sink Buffer (pION inc.) was added in an amount of 200 μL. Both plates were superposed and incubated at 37° C. for 4 hours, and then, UVs in the solutions on the side of acceptor and on the side of donor were measured with an UV plate reader (190 to 500 nm). Compounds with poor UV absorption were measured by LC-MS. The permeability coefficient Pe (10^−6 cm/sec) of the drug was calculated by the following formula.
[formula] • ra=(VD/VA)Pa^(A-D)/Pa^(D-A)=rVPe^(A-D)/Pa^(D-A) • rV=(VD/VA) • VD=volume of doner well • VA=volume of acceptor well • t=permeation time • τ^SS=steady state time • R=retention • CD=CA=concentration in donor and acceptor well

In series [2] the test system is Karpas-299 cells. The experiment in a line: Cellular Toxicity Test (1), CellTiter-Glo cell viability. Format: cell-based, human. The settings on record: for IC50: Homo sapiens, 96 h, cultured 4 days, cell viability. The procedure:
Karpas-299 cells (European Collection of Authenticated Cell Cultures, hereinafter, ECACC), which are human lymphoma cell lines, were cultured in RPMI 1640 (GIBCO) containing 10% fetal bovine serum (MP Biomedicals) (hereinafter, referred to as the “culture medium”). Cells were prepared to be 2×10^6 cells/mL in the culture medium, and were added to a 96 well microplate for cell culturing in an amount of 50 μL for each well. Compounds of Examples or Comparative Example compound 4 times diluted with the culture medium in 8 stages were added to the microplate in an amount of 50 μL for each well. These were cultured at 37 degree under 5% CO2 for 4 days. After culturing, the microplate was taken out from the incubator, and was left at rest at room temperature for 10 minutes. To each well, 50 μL of CellTiter-Glo Luminescent Cell Viability Assay (Promega) was added, and the resultant mixture was stirred. This mixture was incubated at a dark place for 20 minutes. Using a microplate luminometer, luminescence at each well was measured, thereby calculating the cell viability. In addition, from the value of cell viability, the IC50 value was calculated.
The IC50 value was calculated by the following formula: IC50 (nM)=antilog(LOG10(a/b)×(e−d)/(c−d)+LOG10b) a: concentration a of test substance b: concentration b of test substance c: cell viability upon adding test substance with concentration a d: cell viability upon adding test substance with concentration b e: intermediate value between maximum and minimum among cell viabilities upon adding test substances with different concentrations (a and b are concentrations crossing the cell viability e, and a>b is indicated).
The cell viability at each concentration was calculated by the following formula: Cell Viability (%)=a′/b′×100 a′: mean value of luminescence amount of wells to which test substance was added (n=6) b′: mean value of luminescence amount of wells to which test substance was not added (n=6) (n represents the number of evaluations performed per test substance concentration).

In series [3] the test system is SK-BR-3 cells. Kind of series: Cellular Toxicity Test (2), CellTiter-Glo cell viability. In kind it is cell-based, human. Conditions: for IC50: Homo sapiens, 72 h, cultured 3 days, cell viability. The procedure:
SK-BR-3 cells (ATCC), which are human breast cancer cell line, were cultured in McCoy's 5A (GIBCO) containing 10% fetal bovine serum (MP Biomedicals) (hereinafter, referred to as the “culture medium” in this test). SK-BR-3 cells were prepared to be 2×10^6 cells/mL in the culture medium, added to a 96 well microplate for cell culturing in an amount of 50 μL for each well, and cultured at 37 degree under 5% CO2 overnight, and then, compounds of Examples or Comparative Example compound 4 times diluted with the culture medium in 8 stages were added to the microplate in an amount of 50 μL for each well. These were cultured at 37 degree under 5% CO2 for 3 days. After culturing, the microplate was taken out from the incubator, and was left at rest at room temperature for 10 minutes. 50 μL of CellTiter-Glo Luminescent Cell Viability Assay (Promega) was added to each well, and the resultant mixture was stirred. This mixture was incubated at a dark place for 20 minutes. Using a microplate luminometer, luminescence at each well was measured, thereby calculating the cell viability. The IC50 value was calculated in accordance with the method described in Test Example 1.
In general terms: In ATP-based viability assays light output follows the ATP content of the culture.

Series [4] concerns Karpas-299 cells. Kind of series: Cellular Toxicity Test (1) for ADCs. Format: cell-based, human. The settings on record: Karpas-299 (CD30 antigen-positive, HER2 antigen-negative cell line), 4 days. As for the experimental part:
Karpas-299 cells (ECACC), which are CD30 antigen-positive and HER2 antigen-negative, were cultured in RPMI 1640 (GIBCO) containing 10% fetal bovine serum (MP Biomedicals) (hereinafter, referred to as “culture medium A” in this test). In addition, SK-BR-3 cells (ATCC), which are CD30 antigen-negative and HER2 antigen-positive, were cultured in McCoy's 5A (GIBCO) containing 10% fetal bovine serum (MP Biomedicals) (hereinafter, referred to as “culture medium B” in this test). Karpas-299 cells and SK-BR-3 cells were prepared to be 2×10^6 cells/mL in culture medium A or culture medium B, and were added to a 96 well microplate for cell culturing in an amount of 50 μL for each well. After the addition, SK-BR-3 cells were cultured at 37 degree under 5% CO2 overnight. ADCs 4 times diluted with culture medium A or culture medium B in 8 stages were added to the microplate in an amount of 50 μL for each well, and Karpas-299 cells and SK-BR-3 cells were cultured at 37 degree under 5% CO2 for 4 days or 3 days, respectively. After culturing, the microplate was taken out from the incubator, and was left at rest at room temperature for 10 minutes. […] Using a microplate luminometer, luminescence was measured, thereby calculating the cell viability for each concentration of the ADC. The IC50 value was calculated in accordance with the method described in Test Example 1.

Series [5] concerns Karpas-299 cells. Kind of series: Cellular Toxicity Test (2) for ADCs, cell survival relative to brentuximab. Format: cell-based, human. Conditions: Karpas-299, 2000 ng/mL solution added, 4 days, relative to cells surviving brentuximab treatment. The procedure:
Karpas-299 cells were prepared to be 2×10^6 cells/mL in culture medium A, and were added to a 96 well microplate for cell culturing in an amount of 50 μL for each well. Brentuximab or Example ADCs, the concentration of which was prepared to be 2000 ng/mL with culture medium A, was added to the microplate in an amount of 50 μL for each well, and cultured at 37 degree under 5% CO2 for 4 days. After culturing, the microplate was taken out from the incubator, and was left at rest at room temperature for 10 minutes. To each well, 50 μL of CellTiter-Glo Luminescent Cell Viability Assay (Promega) was added, and the resultant mixture was stirred. This mixture was incubated at a dark place for 20 minutes, and luminescence was measured using a microplate luminometer, thereby determining the percentage of the number of cells that survived upon the treatment with Example ADCs relative to the number of cells that survived upon the treatment with brentuximab.

We go through 16 compounds from patent publication US11795195B2, “Antibody-drug conjugates including hemiasterlin derivative” (Sumitomo Pharma Co., Ltd., priority 2017, dated 2023).

As to `CN[C@H](C(=O)N[C@H](C(=O)N(C)[C@H](/C=C(\C)C(=O)NCCCCNC(=O)CCCCCN1C(=O)C=CC1=O)C(C)C)C(C)(C)C)C(C)(C)c1cn(C)c2ccccc12` [Comparative Example compound, reference compound], the Papp at 4 h in series [1] came to 16.9 ×10⁻⁶ cm/s. In series [2], the “cellular toxicity to Karpas-299 cells (in words)” value is reported as “strong cellular toxicity” and the IC50 (usually the concentration that inhibits the measured activity by half) came out at 19.1 nM. Besides, in series [3], the “cellular toxicity to SK-BR-3 cells (in words)” value is on record as “strong cellular toxicity” and inhibition was half-maximal at 162 nM (IC50).

Consider `CN[C@H](C(=O)N[C@H](C(=O)N(C)[C@H](/C=C(\C)C(=O)N[C@H](CCC(=O)NCCN1C(=O)C=CC1=O)C(=O)O)C(C)C)C(C)(C)C)C(C)(C)c1cn(C)c2ccccc12` [Example M1, (3S,6S,9S,10E,14R)-6-tert-Butyl-14-(3-{[2-(2,5-dioxo-2,5-dihydro-1H-pyrrol-1-yl)ethyl]amino}-3-oxopropyl)-8,11-dimethyl-3-[2-(1-methyl-1H-indol-3-yl)propan-2-yl]-4,7,12-trioxo-9-(propan-2-yl)-2,5,8,13-tetraazapentadec-10-en-15-oic Acid], for which the Papp at 4 h in series [1] was below 0.1 ×10⁻⁶ cm/s. Moreover, the IC50 is 726 nM in series [2] and above 1000 nM in series [3].

For `CNC(C(=O)N[C@H](C(=O)N(C)[C@H](/C=C(\C)C(=O)N[C@H](CCC(=O)NCCN1C(=O)C=CC1=O)C(=O)O)C(C)C)C(C)(C)C)C(C)(C)c1ccc(O)cc1` (stereo partly drawn) [Example M34], the Papp at 4 h in series [1] was 2.7 ×10⁻⁶ cm/s. For the same compound, in series [2], the midpoint of inhibition, the IC50, lay at 8 nM.

For `CN[C@H](C(=O)N[C@H](C(=O)N(C)[C@H](/C=C(\C)C(=O)N[C@H](CCC(=O)NCCN1C(=O)C=CC1=O)C(=O)O)C(C)C)C(C)(C)C)C(C)(C)c1cccc(C#N)c1` [Example M35], in series [1], the Papp at 4 h came to 0.8 ×10⁻⁶ cm/s. The same compound registered an IC50 in series [2] of 8.6 nM.

`CN[C@H](C(=O)N[C@H](C(=O)N(C)[C@H](/C=C(\C)C(=O)N[C@H](CCC(=O)NCCN1C(=O)C=CC1=O)C(=O)O)C(C)C)C(C)(C)C)C(C)(C)c1ccc(C(=O)O)cc1` [Example M36]: the Papp at 4 h in series [1] was found to be 0.6 ×10⁻⁶ cm/s. The same compound registered an IC50 in series [2] above 1000 nM.

`CN[C@H](C(=O)N[C@H](C(=O)N(C)[C@H](/C=C(\C)C(=O)N[C@H](CCC(=O)NCCN1C(=O)C=CC1=O)C(=O)O)C(C)C)C(C)(C)C)C(C)(C)c1cccc(OC)c1` [Example M37]: the Papp at 4 h in series [1] is below 0.1 ×10⁻⁶ cm/s. In series [2], this compound yielded an IC50 of 403 nM.

On to `CN[C@H](C(=O)N[C@H](C(=O)N(C)[C@H](/C=C(\C)C(=O)N[C@H](CCC(=O)NCCN1C(=O)C=CC1=O)C(=O)O)C(C)C)C(C)(C)C)C(C)(C)c1cccs1` [Example M39], for which the Papp at 4 h in series [1] is below 0.1 ×10⁻⁶ cm/s. Moreover, it took 379 nM to reach half-maximal inhibition in series [2] (IC50).

Consider `CN[C@H](C(=O)N[C@H](C(=O)N(C)[C@H](/C=C(\C)C(=O)N[C@H](CCC(=O)NCCN1C(=O)C=CC1=O)C(=O)O)C(C)C)C(C)(C)C)C(C)(C)c1ccc2ccccc2c1` [Example M40], for which the Papp at 4 h in series [1] is below 0.1 ×10⁻⁶ cm/s. Moreover, it took 176 nM to reach half-maximal inhibition in series [2] (IC50).

For `CN[C@H](C(=O)N[C@H](C(=O)N(C)[C@H](/C=C(\C)C(=O)N[C@H](CCC(=O)NCCN1C(=O)C=CC1=O)C(=O)O)C(C)C)C(C)(C)C)C(C)(C)c1cccc(-c2ccccc2)c1` [Example M41], in series [1], the Papp at 4 h stood at 0.8 ×10⁻⁶ cm/s. In series [2], this compound came in with an IC50 of 26.3 nM.

For `CN[C@H](C(=O)N[C@H](C(=O)N(C)[C@H](/C=C(\C)C(=O)N[C@H](CCC(=O)NCCN1C(=O)C=CC1=O)C(=O)O)C(C)C)C(C)(C)C)C(C)(C)c1cccc(C)c1` [Example M42], the Papp at 4 h in series [1] was 4.9 ×10⁻⁶ cm/s. In series [2], this compound came in with an IC50 of 91.1 nM.

On to `C/C(=C\[C@H](C(C)C)N(C)C(=O)[C@@H](NC(=O)[C@H]1CCCCN1C(C)C)C(C)(C)C)C(=O)N[C@H](CCC(=O)NCCN1C(=O)C=CC1=O)C(=O)O` [Example M43], for which, in series [1], the Papp at 4 h came out at 2 ×10⁻⁶ cm/s. This compound also displayed an IC50 in series [2] of 3.8 nM.

`CN[C@H](C(=O)N[C@H](C(=O)N(C)[C@H](/C=C(\C)C(=O)N[C@H](CCC(=O)NCCN1C(=O)C=CC1=O)C(=O)O)C(C)C)C(C)(C)C)C(C)(C)c1cccc(Br)c1` [Example M44]: the Papp at 4 h in series [1] came out at 6.8 ×10⁻⁶ cm/s. Also, the midpoint of inhibition in series [2], the IC50, lay at 9.2 nM.

Take `CN[C@@H](C(=O)N[C@H](C(=O)N(C)[C@H](/C=C(\C)C(=O)N[C@H](CCC(=O)NCCN1C(=O)C=CC1=O)C(=O)O)C(C)C)C(C)(C)C)C(C)(C)c1cccc(Br)c1` [Example M45]: the Papp at 4 h in series [1] came to 4 ×10⁻⁶ cm/s. The IC50 in series [2] was found to be 189 nM.

Consider `CNC(C(=O)N[C@H](C(=O)N(C)[C@H](/C=C(\C)C(=O)N[C@H](CCC(=O)O)C(=O)O)C(C)C)C(C)(C)C)C(C)(C)c1ccc(C(=O)NCCN2C(=O)C=CC2=O)cc1` (stereo partly drawn) [Example M47, ((4S,E)-4-((2 S)-2-(3-(4-((2-(2,5-Dioxo-2,5-dihydro-1H-pyrrol-1-yl)ethyl)carbamoyl)phenyl)-3-methyl-2-(methylamino)butanamido)-N,3,3-trimethylbutanamido)-2,5-dimethylhex-2-enoyl)-D-glutamic Acid], for which the Papp at 4 h in series [1] was determined as 1.2 ×10⁻⁶ cm/s. In addition, the half-maximal inhibitory concentration (IC50) in series [2] is above 1000 nM.

`C/C(=C\[C@H](C(C)C)N(C)C(=O)[C@@H](NC(=O)[C@@H](NC(=O)CCCCCN1C(=O)C=CC1=O)C(C)(C)c1cn(C)c2ccccc12)C(C)(C)C)C(=O)N[C@H](CCC(=O)O)C(=O)O` [Example M48]: the Papp at 4 h in series [1] came to 0.3 ×10⁻⁶ cm/s. In addition, in series [2], the IC50 was above 1000 nM.

As for “Comparative Example 1: Brentuximab, a CD30 antigen-specific antibody, no modifying agent, average DAR 0”, in series [4], the IC50 is above 6.6 nM. In series [5], the “Cell survival rate (%)” value came to 100%.
